Source: patent publication US20230148258A1, “SPERMIDINE-SUPPLEMENTED FOOD PRODUCTS” (KALIN HEALTH LLC, priority 2020, published 2023)

Key:
[1] = NOAEL (No Observed Adverse Effect Level), Til et al. 1997
From the text: Food and Drug Administration GRAS Notice No. 889 Spermidine-Rich Wheat Germ Extract, the entirety of which is incorporated herein by reference. […] Til et al., Food and Chemical Toxicology 1997, v. 35, p. 337-348.

[2] = Til et al., Food and Chemical Toxicology 1997; cited from earlier work
[3] = animal models; 10 minutes after; cited from earlier work

Row | SMILES | NOAEL expressed for a 70 kg person [1] [mg/day] | NOAEL (No Observed Adverse Effect Level) [2] [mg/kg body weight/day] | fraction of amount that reached the lumen found in the portal vein [3]
1 | NCCCCNCCCN [spermidine] | ~470 | 83 | Approximately 70%
2 | NCCCNCCCCNCCCN [spermine] | ~106 | 1.52 | Approximately 70%
